Assay [1] deals with Chymotrypsinogen A (Bos taurus) (UniProt P00766). Nature of the assay: Compound was tested for inhibitory activity towards alpha-chymotrypsin expressed as second order rate constant values.
The target is the same in assay [2]. Put plainly: Compound was tested for inhibitory activity against alpha-chymotrypsin.
Assay [3] shares this target. Nature of the assay: Compound was tested for inhibitory activity towards alpha-chymotrypsin expressed as second order rate constant values; No inactivation.
For assay [4], the target named is T1, Chymotrypsin-like elastase family member 2A (Sus scrofa) (UniProt P08419).
T1 sequence (whole entry): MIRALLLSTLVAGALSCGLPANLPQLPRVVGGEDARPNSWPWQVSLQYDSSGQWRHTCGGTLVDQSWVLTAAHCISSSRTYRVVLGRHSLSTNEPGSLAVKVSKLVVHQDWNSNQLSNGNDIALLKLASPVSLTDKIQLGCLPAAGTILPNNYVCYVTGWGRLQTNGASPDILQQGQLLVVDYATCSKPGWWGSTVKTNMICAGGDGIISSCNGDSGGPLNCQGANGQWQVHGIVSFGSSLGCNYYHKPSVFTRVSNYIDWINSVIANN
Put plainly: Compound was tested for inhibitory activity toward porcine pancreatic elastase.

For assay [5], the target named is Chymotrypsinogen A (Bos taurus) (UniProt P00766). Nature of the assay: Compound was tested for inhibitory activity against alpha-chymotrypsin.
Assay [6] has the same target. Nature of the assay: Compound was tested for inhibitory activity towards alpha-chymotrypsin expressed as second order rate constant values.
In assay [7] the target is T1, Chymotrypsin-like elastase family member 2A (Sus scrofa). Nature of the assay: Compound was tested for inhibitory activity toward porcine pancreatic elastase expressed as second order rate constant values: No inactivation.

With `CC(=O)N[C@H](/C=C/CCl)Cc1ccccc1`, in assay [1], the k obs / concentration stood at 0.8 M⁻¹ s⁻¹. This compound gave a Concentration in assay [2] of 0.476 mM.
Consider `CC(=O)N[C@H](/C=C/CF)Cc1ccccc1`, for which, in assay [2], the Concentration was 13.5 mM. The “k obs / concentration” value in assay [3] was “No inactivation”.
As for `O=C(CNC(=O)OCc1ccccc1)N[C@H](/C=C/CBr)Cc1ccccc1`, the Concentration in assay [4] and in assay [5] was 25 µM throughout. Further, the k obs / concentration is 215 M⁻¹ s⁻¹ in assay [6] and “No inactivation” in assay [7].
In assay [2], `O=C(CNC(=O)OCc1ccccc1)N[C@H](/C=C/CF)Cc1ccccc1` came in with a Concentration of 1.05 mM. Also, the “k obs / concentration” value in assay [3] was “No inactivation”.
As to `O=C(CNC(=O)OCc1ccccc1)N[C@H](/C=C/CCl)Cc1ccccc1`, the Concentration in assay [4] came out at 600 µM; in assay [5], 28 µM. Moreover, the k obs / concentration in assay [6] is 12 M⁻¹ s⁻¹; in assay [7], “No inactivation”.
With `CC(=O)N[C@H](/C=C/CBr)Cc1ccccc1`, the Concentration in assay [4] and in assay [5] was 101 µM throughout. For the same compound, the k obs / concentration is 14 M⁻¹ s⁻¹ in assay [6] and “No inactivation” in assay [7].
`O=C(CNC(=O)OCc1ccccc1)NCC(=O)N[C@H](/C=C/CBr)Cc1ccccc1`: the Concentration in assay [4] was 15 µM; in assay [5], 7 µM. Also, the values for the k obs / concentration in assay [6] and in assay [7] were 1240 M⁻¹ s⁻¹ and “No inactivation”, respectively.
The matching figures for `O=C(CNC(=O)OCc1ccccc1)NCC(=O)N[C@H](/C=C/CCl)Cc1ccccc1`: 97 µM, 17 µM, 61 M⁻¹ s⁻¹ and “No inactivation”.
`O=C(CNC(=O)OCc1ccccc1)NCC(=O)N[C@H](/C=C/CF)Cc1ccccc1` yielded a Concentration in assay [2] of 4.4 mM. For the same compound, in assay [3], the “k obs / concentration” value is “No inactivation”.

The values are drawn from ChEMBL document CHEMBL1128956, “Irreversible inhibitions of serine proteases by peptidyl allylic halide derivatives” (Bioorg Med Chem Lett, 1996).
